Results as given in ChEMBL document CHEMBL1128921, “Mechanism-based inactivation of serine proteases by dichlorocyclopropane fused lactone derivatives” (Bioorg Med Chem Lett, 1996).

Columns and labels:
[1] = target: Chymotrypsinogen A (Bos taurus) (UniProt P00766); test: Compound was evaluated for inhibitory activity against alpha-chymotrypsin at a concentration of 6.0 x 10e-3
[2] = target: Chymotrypsinogen A (Bos taurus) (UniProt P00766); test: Compound was evaluated for inhibitory activity against alpha-chymotrypsin at a concentration of 5.0 x 10e-4; NI = No inactivation
[3] = target: T1, Chymotrypsin-like elastase family member 2A (Sus scrofa) (UniProt P08419); test: Compound was evaluated for inhibitory activity against PP elastase at a concentration of 1.95 x 10e-2; NI = No inactivation
T1 sequence (whole entry): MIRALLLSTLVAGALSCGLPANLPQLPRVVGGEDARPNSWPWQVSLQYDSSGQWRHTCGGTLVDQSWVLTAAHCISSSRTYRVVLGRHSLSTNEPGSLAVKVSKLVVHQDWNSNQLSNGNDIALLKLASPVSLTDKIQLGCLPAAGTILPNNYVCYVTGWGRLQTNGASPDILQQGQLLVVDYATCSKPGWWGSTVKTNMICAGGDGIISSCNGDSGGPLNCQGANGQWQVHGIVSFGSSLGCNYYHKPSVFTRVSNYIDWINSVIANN

[4] = target: Chymotrypsinogen A (Bos taurus) (UniProt P00766); test: Compound was evaluated for inhibitory activity against alpha-chymotrypsin at a concentration of 1.95 x 10e-2; NI = No inactivation
[5] = target: T1, Chymotrypsin-like elastase family member 2A (Sus scrofa); test: Compound was evaluated for inhibitory activity against PP elastase at a concentration of 1.2 x 10e-3; NI = No inactivation
[6] = target: Chymotrypsinogen A (Bos taurus) (UniProt P00766); test: Compound was evaluated for inhibitory activity against alpha-chymotrypsin at a concentration of 5.0 x 10e-4
[7] = target: T1, Chymotrypsin-like elastase family member 2A (Sus scrofa); test: Compound was evaluated for inhibitory activity against PP elastase at a concentration of 2.0 x 10e-5; NI = No inactivation
[8] = target: Chymotrypsinogen A (Bos taurus) (UniProt P00766); test: Compound was evaluated for inhibitory activity against alpha-chymotrypsin at a concentration of 7.5 x 10e-6

O=C(O)CCC(=O)N[C@@H](Cc1ccccc1)C(=O)OC1CC1(Cl)Cl (stereo partly drawn)
K obs / 1 [1]: 0.054 M⁻¹ s⁻¹

O=C1OCCCC1Cc1ccccc1 (stereo not drawn)
K obs / 1 [2]: No inactivation

O=C1CCC2C(O1)C2(Cl)Cl (stereo not drawn)
K obs / 1 [3]: No inactivation | K obs / 1 [4]: No inactivation

C[C@H](NC(=O)CCC(=O)O)C(=O)N[C@@H](C)C(=O)N[C@@H](Cc1ccccc1)C(=O)OC1CC1(Cl)Cl (stereo partly drawn)
K obs / 1 [5]: No inactivation | K obs / 1 [6]: 0.337 M⁻¹ s⁻¹

O=C1OC2C(CC1Cc1ccccc1)C2(Cl)Cl (stereo not drawn)
K obs / 1 [7]: No inactivation | K obs / 1 [8]: 54 M⁻¹ s⁻¹
